The text below walks through data of patent EP2567943A1, “TITANIUM COAGULANT FOR NATURAL AND WASTE WATER PURIFICATION AND DISINFECTION AND METHOD FOR UTILIZING THEREOF” (Sittec Closed Joint Stock Company (Sittec CJSC), priority 2007, dated 2009).

Data set [1] is described as follows: hygienic hazard indices in water. The procedure:
(§1) Testing the safe method for producing and utilizing the claimed titanium coagulant (absence of mutagenous impact; sensibilizing, allergenic, carcinogenic, gonadotoxic and other action) was carried out on the base of the State organ SRI of human ecology and environmental hygiene named after A.N. Sysin of the Russian Academy of Medical Sciences (RAMS).
(§2) Particularly, derivatives of aluminium oxychloride (AOC) and aluminium sulfate are monitored in accordance with the aluminium content in potable water. While testing the new coagulant, the same principles for evaluating the titanium coagulant safety as the safety evaluation of coagulants based on aluminium were applied. […]
One can see from the Table 22 that the method for producing the titanium coagulant and the coagulant generally are safe by the main hygienic indices, and control of the titanium coagulant content in purified water should be performed in accordance with the titanium and aluminium content therein pursuant to the MAC of 0.1 mg/L and 0.2 mg/L, respectively, established for them.

Data set [2] in a line: acute toxicity (hazard indices). The conditions noted are these: in vivo. As for the experimental part:
as §1, §2

Usually LD50 stands for the dose at which mortality reaches 50%. High values mean a less toxic substance, low ones a more toxic substance. In turn, Titanium yielded a Min.possi bl in data set [1] of 1.0 mg/kg. In addition, the L.conc. in data set [1] (retardation) is on record as 0.1 (retardation) mg/L; in data set [1] (taint), 4.5 (taint) mg/L. Moreover, the LD50 in data set [2] is on record as 150 mg/kg.
Compound “aluminium oxychloride [AOC, reference compound]” had an MAC in data set [1] of 1.5 mg/L. The compound also displayed a Min.possi bl in data set [1] of 1.0 mg/kg. In addition, the L.conc. in data set [1] (muddiness) is listed as 1.45 (muddiness) mg/L; in data set [1] (retardation) it was 1.0 (retardation) mg/L.
`[Al]` [Aluminium]: the L.conc. in data set [1] (muddiness) is given as 0.2 (muddiness) mg/L. Moreover, the LD50 in data set [2] was 180 to 1360 mg/kg.
